From PubChem BioAssay AID212 (DTP/NCI, 2004)
Several values for one entry are separate records, joined by “and”; a condition that tells them apart may be missing. Equal entries are not always repeated. Results filed as inconclusive are left out.

System: BDF1 mice, colon carcinoma 38 sc, T/C %
Test: NCI In Vivo Anticancer Drug Screen. Data for tumor model Colon Carcinoma 38 (subcutaneous) in B6D2F1 (BDF1) mice
Settings: endpoint: median tumor weight (est.), higher = larger tumour
How it was run: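 T/C readout: treated group (T) measurement over vehicle control group (C) measurement. Endpoint is survival or tumor size in mice bearing a transplanted tumor.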

[1] = dose: 50.0 mg/kg/injection, schedule: Q07DX002 (ip), vehicle: saline with Tween-80
[2] = dose: 200.0 mg/kg/injection, schedule: Q07DX002 (ip), vehicle: saline with Tween-80
[3] = dose: 400.0 mg/kg/injection, schedule: Q07DX002 (ip), vehicle: saline with Tween-80

CCOC(=O)[C@]1(Br)CC[C@@]1(Br)C(=O)OCC
T/C (dose: 12.5 mg/kg/injection, schedule: Q07DX002 (ip), vehicle: saline with Tween-80): 76 % of control | T/C [1]: 71 % of control and 75 % of control | T/C [2]: 78 % of control and 95 % of control and 96 % of control | T/C [3]: 79 % of control and 80 % of control and 97 % of control | T/C (dose: 800.0 mg/kg/injection, schedule: Q07DX002 (ip), vehicle: saline with Tween-80): 113 % of control

CCCCCCCCSC1=C(Cl)C(=O)C(OC)=C(OC)C1=O
T/C (dose: 1.56 mg/kg/injection, schedule: Q07DX002 (ip), vehicle: saline with Tween-80): 94 % of control and 95 % of control

COc1cc(NS(C)(=O)=O)ccc1Nc1c2ccccc2nc2ccccc12
T/C (dose: 0.5 mg/kg/injection, schedule: Q07DX003 (ip), vehicle: other): 68 % of control | T/C (dose: 1.0 mg/kg/injection, schedule: Q07DX002 (ip), vehicle: other): 93 % of control | T/C (dose: 1.0 mg/kg/injection, schedule: Q07DX003 (ip), vehicle: other): 88 % of control | T/C (dose: 2.0 mg/kg/injection, schedule: Q07DX003 (ip), vehicle: other): 42 % of control | T/C (dose: 4.0 mg/kg/injection, schedule: Q07DX002 (ip), vehicle: other): 78 % of control and 91 % of control | T/C (dose: 4.0 mg/kg/injection, schedule: Q07DX003 (ip), vehicle: other): 56 % of control | T/C (dose: 8.0 mg/kg/injection, schedule: Q07DX003 (ip), vehicle: other): 47 % of control

CCNC(=O)OCc1c(COC(=O)NCC)c(-c2ccc(Cl)c(Cl)c2)n2c1CCC2
T/C (dose: 3.12 mg/kg/injection, schedule: Q07DX002 (ip), vehicle: saline): 74 % of control | T/C (dose: 6.25 mg/kg/injection, schedule: Q07DX002 (ip), vehicle: saline): 104 % of control | T/C (dose: 12.5 mg/kg/injection, schedule: Q07DX002 (ip), vehicle: saline): 86 % of control | T/C (dose: 25.0 mg/kg/injection, schedule: Q07DX002 (ip), vehicle: saline): 62 % of control | T/C (dose: 50.0 mg/kg/injection, schedule: Q07DX002 (ip), vehicle: saline): 42 % of control

Nc1ncnc2c1nnn2C1OC(CO)C(O)C1O (configuration not stated)
T/C (dose: 400.0 mg/kg/injection, schedule: Q07DX002 (ip), vehicle: Klucel (hydroxypropylcellulose) (HPC)): 45 % of control

CN(C)C1C(=O)C(C(=O)NP(=O)(NCCCO)N(CCCl)CCCl)=C(O)C2(O)C(=O)C3=C(O)c4c(O)cccc4C(C)(O)C3CC12 (configuration not stated)
T/C [1]: 82 % of control | T/C (dose: 100.0 mg/kg/injection, schedule: Q07DX002 (ip), vehicle: saline with Tween-80): 95 % of control | T/C [2]: 56 % of control | T/C [3]: 17 % of control

CCc1nc(N)nc(N)c1-c1ccc(Cl)c(N=[N+]=[N-])c1
T/C (dose: 25.0 mg/kg/injection, schedule: Q07DX002 (ip), vehicle: distilled water + Tween-80): 82 % of control | T/C (dose: 50.0 mg/kg/injection, schedule: Q07DX002 (ip), vehicle: distilled water + Tween-80): 98 % of control | T/C (dose: 100.0 mg/kg/injection, schedule: Q07DX002 (ip), vehicle: distilled water + Tween-80): 97 % of control | T/C (dose: 200.0 mg/kg/injection, schedule: Q07DX002 (ip), vehicle: distilled water + Tween-80): 88 % of control | T/C (dose: 400.0 mg/kg/injection, schedule: Q07DX002 (ip), vehicle: distilled water + Tween-80): 106 % of control

CCN1C=C/C(=C\C=C/c2cc[n+](CC)c3ccccc23)c2ccccc21
T/C (dose: 0.06 mg/kg/injection, schedule: Q07DX002 (ip), vehicle: saline): 91 % of control | T/C (dose: 0.12 mg/kg/injection, schedule: Q07DX002 (ip), vehicle: saline): 120 % of control | T/C (dose: 62.0 micrograms/kg/injection, schedule: Q07DX002 (ip), vehicle: saline): 101 % of control | T/C (dose: 125.0 micrograms/kg/injection, schedule: Q07DX002 (ip), vehicle: saline): 123 % of control | T/C (dose: 250.0 micrograms/kg/injection, schedule: Q07DX002 (ip), vehicle: saline): 156 % of control

CC(=O)OCC1OC([S-])C(OC(C)=O)C(OC(C)=O)C1OC(C)=O.CC[PH+](CC)CC.CC[PH+](CC)CC.[Au].[Au] (configuration not stated)
T/C (dose: 2.5 mg/kg/injection, schedule: Q07DX002 (ip), vehicle: Klucel (hydroxypropylcellulose) (HPC)): 99 % of control | T/C (dose: 10.0 mg/kg/injection, schedule: Q07DX002 (ip), vehicle: Klucel (hydroxypropylcellulose) (HPC)): 89 % of control and 93 % of control

CC(=O)C(=O)O.CC(=O)C(=O)O.[NH-]C1CCCCC1[NH-].[Pt+2] (configuration not stated)
T/C (dose: 25.0 mg/kg/injection, schedule: Q07DX002 (ip), vehicle: dextrose): 96 % of control | T/C (dose: 50.0 mg/kg/injection, schedule: Q07DX002 (ip), vehicle: dextrose): 44 % of control
